Counter-ions that a name gives are not always drawn.
Columns and labels:
[1] = target: AMPA receptors; assay: AMPA receptor binding affinity (Honore et al.)
[2] = target: kainate site (non-NMDA receptor); assay: Kainate site (non-NMDA receptor) binding affinity (London and Coyle)
[3] = target: T1, glycine site of the NMDA receptor (Rattus norvegicus, UniProt P35439); assay: Glycine site of the NMDA receptor binding affinity (Jones et al.)
T1 construct: from tissue

[4] = test system: AMPA-induced neuronal damage in primary cortical neuronal cultures; assay: AMPA-induced neuronal damage in primary cortical neuronal cultures, LDH release; format: cell-based; settings: Table 1, cyclohexyl-fused analogs, long-term exposure to 100 μM AMPA
Procedure: To functionally measure AMPA antagonist activity, the effects of the agent on AMPA-induced neuronal damage in primary cortical neuronal cultures was examined using techniques similar to those outlined by Koh, J.-Y. et al., J. Neurosci, 1990; 10:693. The neuronal damage produced by long-term exposure to 100 μM AMPA was measured by the release of the cytosolic enzyme lactate dehydrogenase (LDH).
Selected compounds of the present invention were tested by one or more of the above-described assays. The IC50 values set forth in Tables 1 and 2 are a measure of the concentration (μM) of the test substance which inhibits 50% of an induced release from the tested receptors.

[5] = Table 1, cyclohexyl-fused analogs
[6] = Table 2, cyclopentyl-fused analogs

IC50 [1, 6] [µM] | IC50 [2, 6] [µM] | SMILES | also measured
> 100 | > 100 | CC(=O)NC1Cc2cc(Br)c3[nH]c(=O)c(=O)[nH]c3c2C1 (stereo not drawn) [Example 28, N-(5-bromo-2,3-dioxo-2,3,4,7,8,9-hexahydro-1H-cyclopenta[f]quinoxalin-8-yl)-acetamide] | –
5.1 | – | CC(=O)NC1Cc2c([N+](=O)[O-])c(Br)c3[nH]c(=O)c(=O)[nH]c3c2C1 (stereo not drawn) [Example 29, N-(5-bromo-6-nitro-2,3-dioxo-2,3,4,7,8,9-hexahydro-1H-cyclopenta[f]quinoxalin-8-yl)acetamide] | –
25 | 87 | CC(=O)NC1Cc2ccc3[nH]c(=O)c(=O)[nH]c3c2C1 (stereo not drawn) [Example 30, N-(2,3-dioxo-2,3,4,7,8,9-hexahydro-1H-cyclopenta[f]quinoxalin-8-yl)-acetamide] | –
0.12 | 0.28 | O=C(NC1Cc2c([N+](=O)[O-])cc3[nH]c(=O)c(=O)[nH]c3c2C1)C1CCNCC1 (stereo not drawn) [Example 35, 4-(6-nitro-2,3-dioxo-2,3,4,7,8,9-hexahydro-1H-cyclopenta[f]quinoxalin-8-ylcarbamoyl)piperidine hydrochloride] | IC50 [3, 6]: < 1 µM
2.6 | 2.1 | NC1Cc2c([N+](=O)[O-])cc3[nH]c(=O)c(=O)[nH]c3c2C1 (stereo not drawn) [Example 38, 8-amino-6-nitro-4,7,8,9-tetrahydro-1H-cyclopenta[f]quinoxaline-2,3-dione hydrochloride] | –
0.05 | 0.18 | O=C(NC1Cc2c([N+](=O)[O-])cc3[nH]c(=O)c(=O)[nH]c3c2C1)c1cccs1 (stereo not drawn) [Example 54, Thiophene-2-carboxylic acid (6-nitro-2,3-dioxo-2,3,4,7,8,9-hexahydro-1H-cyclopenta[f]quinoxaline-8-yl)-amide] | IC50 [3, 6]: 0.3 µM
0.56 | 1.9 | O=C(NC1Cc2c([N+](=O)[O-])cc3[nH]c(=O)c(=O)[nH]c3c2C1)c1ccccn1 (stereo not drawn) [Example 62, Pyridine-2-carboxylic acid (6-nitro-2,3-dioxo-2,3,4,7,8,9-hexahydro-1H-cyclopenta[f]quinoxalin-8-yl)-amide] | IC50 [3, 6]: > 1 µM
3.6 | 1.6 | CN(C(=O)c1cccs1)C1Cc2c([N+](=O)[O-])cc3[nH]c(=O)c(=O)[nH]c3c2C1 (stereo not drawn) [Example 67, Thiophene-2-carboxylic acid methyl-(6-nitro-2,3-dioxo-2,3,4,7,8,9-hexahydro-1H-cyclopenta[f]quinoxalin-8-yl)-amide] | –
7.4 | 1.9 | CN(C(=O)c1ccccc1)C1Cc2c([N+](=O)[O-])cc3[nH]c(=O)c(=O)[nH]c3c2C1 (stereo not drawn) [Example 68, N-Methyl-N-(6-nitro-2,3-dioxo-2,3,4,7,8,9-hexahydro-1H-cyclopenta[f]quinoxalin-8-yl)-benzamide] | –
0.42 | 1.9 | O=C(O)C1Cc2c([N+](=O)[O-])cc3[nH]c(=O)c(=O)[nH]c3c2C1 (stereo not drawn) [Example 78, 6-Nitro-2,3,-dioxo-2,3,4,7,8,9-hexahydro-1H-cyclopenta[f]quinoxaline-8-carboxylic acid] | IC50 [3, 6]: 14 µM
1.1 | 1.4 | O=C(CN(CCO)CCO)NC1Cc2c([N+](=O)[O-])cc3[nH]c(=O)c(=O)[nH]c3c2C1 (stereo not drawn) [Example 101, 2-[Bis-(2-hydroxy-ethyl)-amino]-N-(6-nitro-2,3-dioxo-2,3,4,7,8,9-hexahydro-1H-cyclopenta[f]quinoxalin-8-yl)-acetamide] | –
1.5 | 2.2 | O=c1[nH]c2cc([N+](=O)[O-])c3c(c2[nH]c1=O)CC(N1CCCC1)C3 (stereo not drawn) [Example 104, 6-Nitro-8-pyrrolidin-1-yl-4,7,8,9-tetrahydro-1H-cyclopenta[f]quinoxaline-2,3-dione] | –
5.1 | 5.4 | CCN(CC)C1Cc2c([N+](=O)[O-])cc3[nH]c(=O)c(=O)[nH]c3c2C1 (stereo not drawn) [Example 109, 8-Diethylamino-6-nitro-4,7,8,9,-tetrahydro-1H-cyclopenta[f]quinoxaline-2,3-dione] | –

Second part, the compound before the results:

SMILES | IC50 [1, 6] [µM] | IC50 [2, 6] [µM] | also measured
O=c1[nH]c2cc(Br)c3c(c2[nH]c1=O)CC(O)CC3 (stereo not drawn) [Example 7, 6-bromo-9-hydroxy-1,4,7,8,9,10-hexahydro-benzo[f]quinoxaline-2,3-dione] | – | – | IC50 [1, 5]: 17 µM; IC50 [2, 5]: 3 µM; IC50 [3, 5]: 1.5 µM
O=c1[nH]c2cc(Br)c3c(c2[nH]c1=O)CC(OCc1ccccc1)CC3 (stereo not drawn) [Example 8, 9-benzyloxy-6-bromo-1,4,7,8,9,10-hexahydro-benzo[f]quinoxaline-2,3-dione] | – | – | IC50 [1, 5]: 14 µM; IC50 [2, 5]: > 100 µM
O=c1[nH]c2cc(Br)c3c(c2[nH]c1=O)CC(NCc1ccccc1)CC3 (stereo not drawn) [Example 19, 9-benzylamino-6-bromo-1,4,7,8,9,10-hexahydro-benzo[f]quinoxaline-2,3-dione] | – | – | IC50 [1, 5]: 25 µM; IC50 [2, 5]: > 100 µM; IC50 [3, 5]: > 100 µM
CC(=O)NC1Cc2c([N+](=O)[O-])cc3[nH]c(=O)c(=O)[nH]c3c2C1 (stereo not drawn) [Example 32, N-(6-nitro-2,3-dioxo-2,3,4,7,8,9-hexahydro-1H-cyclopenta[f]quinoxalin-8-yl)-acetamide] | 0.4 | 0.9 | IC50 [3, 6]: 1.3 µM
O=C(NC1CCc2c([N+](=O)[O-])cc3[nH]c(=O)c(=O)[nH]c3c2C1)C1CCCCC1 (stereo not drawn) [Example 37, N-(6-nitro-2,3-dioxo-1,2,3,4,7,8,9,10-octahydrobenzo[f]quinoxalin9-yl)cyclohexylamide] | – | – | IC50 [3, 5]: 0.5 µM; IC50 [4]: 28 µM
O=C(CCc1ccc(O)cc1)NC1CCc2c([N+](=O)[O-])cc3[nH]c(=O)c(=O)[nH]c3c2C1 (stereo not drawn) [Example 41, 2-(6-nitro-2,3-dioxo-1,2,3,4,7,8,9,10-octahydrobenzo[f]quinoxaline-9-ylcarbamoyl)ethyl-(4-hydroxy)benzene] | – | – | IC50 [3, 5]: > 1 µM
O=C(Nc1ccccc1)NC1CCc2c([N+](=O)[O-])cc3[nH]c(=O)c(=O)[nH]c3c2C1 (stereo not drawn) [Example 42, N-phenyl-N'-(6-nitro-2,3-dioxo-1,2,3,4,7,8,9,10-octahydrobenzo[f]quinoxalin-9-yl)urea] | – | – | IC50 [1, 5]: 0.15 µM; IC50 [2, 5]: 0.83 µM; IC50 [3, 5]: 0.18 µM
CNC1CCc2c([N+](=O)[O-])cc3[nH]c(=O)c(=O)[nH]c3c2C1 (stereo not drawn) [Example 52, 9-Methylamino-6-nitro-1,4,7,8,9,10-hexahydrobenzo[f]quinoxaline-2,3-dione] | – | – | IC50 [1, 5]: 0.79 µM; IC50 [2, 5]: 2.8 µM; IC50 [3, 5]: > 1 µM
CN(C(=O)c1ccccc1)C1CCc2c([N+](=O)[O-])cc3[nH]c(=O)c(=O)[nH]c3c2C1 (stereo not drawn) [Example 53, N-Methyl-N-(6-nitro-2,3-dioxo-1,2,3,4,7,8,9,10-octahydro-benzo[f]quinoxalin-9-yl)-benzamide] | – | – | IC50 [1, 5]: 1.1 µM; IC50 [2, 5]: 1.6 µM
O=C(NC1Cc2c([N+](=O)[O-])cc3[nH]c(=O)c(=O)[nH]c3c2C1)C1CCCN1 (stereo not drawn) [Example 64, Pyrrolidine-2-carboxylic acid (6-nitro-2,3-dioxo-2,3,4,7,8,9-hexahydro-1H-cyclopenta[f]quinoxalin-8-yl)-amide] | 0.64 | 0.86 | IC50 [3, 6]: > 1 µM
O=C(NC1Cc2c([N+](=O)[O-])cc3[nH]c(=O)c(=O)[nH]c3c2C1)c1cc2ccccc2s1 (stereo not drawn) [Example 65, Benzo[b]thiophene-2-carboxylic acid (6-nitro-2,3,-dioxo-2,3,4,7,8,9-hexahydro-1H-cyclopenta[f]quinoxalin-8-yl)-amide] | 1.3 | 8.1 | –
CN(C(=O)C1Cc2c([N+](=O)[O-])cc3[nH]c(=O)c(=O)[nH]c3c2C1)c1ccccc1 (stereo not drawn) [Example 69, 6-Nitro-2,3-dioxo-2,3,4,7,8,9-hexahydro-1H-cyclopenta[f]quinoxaline-8-carboxylic acid methyl-phenyl-amide] | 0.42 | 1.6 | IC50 [3, 6]: > 100 µM
O=C(Nc1ccccc1)C1Cc2c([N+](=O)[O-])cc3[nH]c(=O)c(=O)[nH]c3c2C1 (stereo not drawn) [Example 80, 6-Nitro-2,3,-dioxo-2,3,4,7,8,9-hexahydro-1H-cyclopenta[f]quinoxaline-8-carboxylic acid phenylamide] | 1.6 | 3.9 | –
O=c1[nH]c2cc([N+](=O)[O-])c3c(c2[nH]c1=O)CC(N1CCCC1)CC3 (stereo not drawn) [Example 86, 6-Nitro-9-pyrrolidin-1-yl-1,4,7,8,9,10-hexahydro-benzo[f]quinoxaline-2,3-dione] | – | – | IC50 [1, 5]: 2.2 µM; IC50 [2, 5]: 3.8 µM
CN(C)C1Cc2c([N+](=O)[O-])cc3[nH]c(=O)c(=O)[nH]c3c2C1 (stereo not drawn) [Example 90, 8-Dimethylamino-6-nitro-4,7,8,9-tetrahydro-1H-cyclopenta[f]quinoxaline-2,3-dione] | 0.91 | 2.6 | IC50 [3, 6]: 12 µM
CNC1Cc2c([N+](=O)[O-])cc3[nH]c(=O)c(=O)[nH]c3c2C1 (stereo not drawn) [Example 100, 8-Methylamino-6-nitro-4,7,8,9-tetrahydro-1H-cyclopenta[f]quinoxaline-2,3-dione methane sulfonate salt] | 1.2 | 2.2 | –
CC(=O)N(C)C1Cc2c([N+](=O)[O-])cc3[nH]c(=O)c(=O)[nH]c3c2C1 (stereo not drawn) [Example 105, N-Methyl-N-(6-nitro-2,3,-dioxo-2,3,4,7,8,9-hexahydro-1H-cyclopenta[f]quinoxaline-8-yl)acetamide] | 2.2 | 2.2 | –
O=c1[nH]c2cc([N+](=O)[O-])c3c(c2[nH]c1=O)CC(N1CCCCC1)C3 (stereo not drawn) [Example 108, 6-Nitro-8-piperidin-1-yl-4,7,8,9-tetrahydro-1H-cyclopenta[f]quinoxaline-2,3-dione] | 3.4 | 1.6 | –

— patent US5721234A, “Glutamate receptor antagonists: fused cycloalkylouinoxalinediones” (Warner-Lambert Company, priority 1995, dated 1998)
